The values that follow come from patent US7348402B2, “Antimicrobial peptide, its analogs and antimicrobial composition comprising them” (priority 2002, dated 2008).

No end group written: not given here.

Common to all, as to format: cell-based
The test system of assay [1] is Bacillus subtilis (ATCC 62037). The conditions noted are these: ATCC 62037, 12 h. The source says: (§1) The microorganisms used in the present invention include Gram-positive bacteria such as Bacillus subtilis (ATCC 62037), Staphylococcus aureus (ATCC 15752) and Streptococcus mutans (ATCC 25175), Gram-negative bacteria such as Escherichia coli (ATCC 27325), Salmonella enteritidis (ATCC 15277) and Pseudomonas putida (ATCC 17426) and fungi such as Candida albicans (ATCC 10231), Saccharomyces cerevisiae (ATCC 44774) and Cryptococcus neoformans (ATCC 34881), obtained from American Type Culture Collection (ATCC).
(§2) The antimicrobial activity of the peptides prepared in Example 1 was determined against microorganisms by 96-well microdilution minimal inhibitory concentration assay. After overnight culturing the bacteria and fungi in trypticase soy broth (TSB) and Saboraud (SAB) at 37° C. and 30° C., respectively, they were inoculated in new media and cultured for 2 hours to exponential growth phase. After diluting the microorganisms to 10^5 per 1 ml, 190 μl was inoculated in each 96-well plate, and 10 μl of serially diluted peptides were added in each well.

The test system of assay [2] is Pseudomonas putida (ATCC 17426). The conditions noted are these: ATCC 17426, 12 h.
Text: as §1, §2

The subject of assay [3] is Escherichia coli (ATCC 27325). Conditions: ATCC 27325, 12 h.
Text: as §1, §2

In assay [4] the test system is Cryptococcus neoformans (ATCC 34881). The conditions noted are these: ATCC 34881, 12 h.
Text: as §1, §2

Assay [5] deals with Salmonella enteritidis (ATCC 15277). The conditions noted are these: ATCC 15277, 12 h.
Text: as §1, §2

For assay [6], the system named is Candida albicans (ATCC 10231). The conditions noted are these: ATCC 10231, 12 h.
Text: as §1, §2

Assay [7] deals with Staphylococcus aureus (ATCC 15752). Conditions: ATCC 15752, 12 h.
Text: as §1, §2

For assay [8], the system named is Streptococcus mutans (ATCC 25175). Conditions: ATCC 25175, 12 h.
Text: as §1, §2

Assay [9] deals with Saccharomyces cerevisiae (ATCC 44774). The conditions noted are these: ATCC 44774, 12 h.
Text: as §1, §2

Regarding KVLKKVLKKVLKNWPIGKVLK [compound 57], the “Minimum Inhibitory Concentration” value was 1 µg/mL in assay [1]; 1 µg/mL in assay [2]; 2 µg/mL in assay [3]; 1 µg/mL in assay [4]; 1 µg/mL in assay [5]; 1 µg/mL in [6]. Also, the “Minimum Inhibitory Concentration” value in assay [7] was determined as 1 µg/mL; in assay [8], 2 µg/mL; in [9], 2 µg/mL.
As for KVLKNWPIGKVLKKVLKKVLK [compound 23], the “Minimum Inhibitory Concentration” value stood at 1 µg/mL in assay [1]; 1 µg/mL in assay [2]; 1 µg/mL in assay [3]; 1 µg/mL in [4]; 2 µg/mL in assay [5]; 1 µg/mL in [6]. The figures for the “Minimum Inhibitory Concentration” value in assay [7], in assay [8] and in [9] were 1 µg/mL, 2 µg/mL and 1 µg/mL, respectively.
As for KVLRKVLRKVLRNWPIGKVLR [compound 65], the “Minimum Inhibitory Concentration” value turned out to be 2 µg/mL in [1]; 1 µg/mL in assay [2]; 1 µg/mL in [3]; 1 µg/mL in assay [4]; 2 µg/mL in assay [5]; 1 µg/mL in assay [6]. Moreover, the entries for the “Minimum Inhibitory Concentration” value in assay [7], in assay [8] and in [9] were 1 µg/mL, 2 µg/mL and 1 µg/mL, respectively.
For the substance KVLRKVLRKVLRQWPIGKVLR-NH2 [compound 71], the “Minimum Inhibitory Concentration” value in [1], in assay [2], in assay [3], in assay [4], in assay [5] and in assay [6] was 1 µg/mL throughout. In addition, the “Minimum Inhibitory Concentration” value worked out at 1 µg/mL in assay [7], 1 µg/mL in [8] and 2 µg/mL in [9].
Consider KVLRNWPIGKVLRKVLRKVLR [compound 31], for which the “Minimum Inhibitory Concentration” value in assay [1], in [2], in assay [3], in assay [4], in [5] and in assay [6] was 1 µg/mL in each case. Besides, the “Minimum Inhibitory Concentration” value in assay [7] was 1 µg/mL; in [8] it was 2 µg/mL; in assay [9] it was 2 µg/mL.
Regarding KVVKKVVKKVVKNWPIGKVVK [compound 53], the “Minimum Inhibitory Concentration” value was determined as 1 µg/mL in assay [1]; 1 µg/mL in assay [2]; 1 µg/mL in [3]; 1 µg/mL in [4]; 1 µg/mL in assay [5]; 2 µg/mL in assay [6]. The “Minimum Inhibitory Concentration” value in assay [7], in assay [8] and in assay [9] was 1 µg/mL in each case.
Turning to KVVKKVVKKVVKQWPIGKVVK [compound 36], the “Minimum Inhibitory Concentration” value turned out to be 1 µg/mL in assay [1]; 1 µg/mL in assay [2]; 2 µg/mL in assay [3]; 1 µg/mL in assay [4]; 1 µg/mL in assay [5]; 2 µg/mL in [6]. In addition, the “Minimum Inhibitory Concentration” value is 1 µg/mL in assay [7], 2 µg/mL in assay [8] and 2 µg/mL in assay [9].
